Series [1] concerns HIV-1. Nature of the series: Inhibition of HIV-1 infectivity (p24 ELISA) in MT-2 cells, laboratory-adapted HIV-1 strains. In kind it is cell-based. To be noted: Human immunodeficiency virus 1, MT2, 96 h, MT-2 cells, p24 ELISA day 4. The method, then:
AZT was used as a positive control in the infectivity assays. In brief, 1×10^4 MT-2 cells (lymphocytes) were infected with HIV-1 at 100 TCID50 (50% tissue culture infective dose, 0.01 MOI [multiplicity of infection]) in 200 μL RPMI 1640 medium containing 10% FBS in the presence or absence of small molecules at graded concentrations overnight. The culture supernatants were then removed and fresh media containing freshly prepared test compounds were added. On the fourth day post-infection, 100 μL of culture supernatants were collected from each well, mixed with equal volume of 5% TRITON X-100® and tested for p24 antigen by ELISA®.

Series [2] in a line: XTT cytotoxicity assay in MT-2 cells. In kind it is cell-based. To be noted: human, cell type not given. The method, then:
Briefly, for MT-2 cells, 100 μL of small molecule at graded concentrations was added to an equal volume of cells (5×10^4 cells/ml) in 96-well plates followed by incubation at 37° C. for 4 days, which ran parallel to the neutralization assay in MT-2 (except medium was added instead of virus). In the case of PBMC, 2.5×10^5 cells/mL were used and the cytotoxicity was measured after 7 days. After addition of XTT (PolySciences, Inc.), the soluble intracellular formazan was quantitated calorimetrically at 450 nm 4 hours later with a reference at 620 nm. The CC50 values were calculated.

The mark [3] stands for this setting: Table 2, formula II, read-out: CC50.
Setting [4] is: read-out: IC50 (concentration that provides 50% inhibition of HIV-1 p24), Table 1, formula I.
Where [5] appears, read: Table 1, formula I, read-out: CC50 (concentration that causes 50% cytotoxicity).

Structures are written as SMILES. pIC50: −log10 of the molar value. Like-named read-outs stand apart in the source and are kept apart here.

With `Cc1ccc(NCC(O)Cn2c3ccccc3n3c(=O)cc(C)c(C#N)c23)cc1Cl` (stereo not drawn) [NYAD-S57], the pIC50 in series [1] (Table 2, formula II) is less than 5.00. Also, the CC50 in series [2] (setting [3]) is greater than 10 µM.

In the case of `Cc1cc(C)cc(NCC(O)Cn2c3ccccc3n3c(=O)cc(C)c(C#N)c23)c1` (stereo not drawn) [NYAD-S58], the pIC50 in series [1] (Table 2, formula II) is less than 5.00. Also, the CC50 in series [2] (setting [3]) was greater than 10 µM.

In series [1] (Table 2, formula II), `Cc1cc(=O)n2c3ccccc3n(CC(O)CNc3ccc(C(C)C)cc3)c2c1C#N` (stereo not drawn) [NYAD-S59] had a pIC50 greater than 5.00. Also, in series [2] (setting [3]), the CC50 was less than 10 µM.

For `CCc1ccc(NCC(O)Cn2c3ccccc3n3c(=O)cc(C)c(C#N)c23)cc1` (stereo not drawn) [NYAD-S60], the pIC50 in series [1] (Table 2, formula II) was less than 5.00. The CC50 in series [2] (setting [3]) was less than 10 µM.

Regarding `COc1ccc2[nH]c(=O)c(CN(Cc3ccco3)C(=O)c3ccccc3C)cc2c1` [NYAD-S61], in series [1] (setting [4]), the pIC50 was less than 5.00. Also, the CC50 in series [2] (setting [5]) was greater than 10 µM.

With `Cc1cc(=O)n2c3ccccc3n(CC(O)CCl)c2c1C#N` (stereo not drawn) [NYAD-S62], in series [1] (Table 2, formula II), the pIC50 is less than 5.00. Moreover, the CC50 in series [2] (setting [3]) is greater than 10 µM.

On to `Cc1cc(=O)n2c3ccccc3n(CC(O)CNc3ccc(Cl)cc3)c2c1C#N` (stereo not drawn) [NYAD-S63], for which the pIC50 in series [1] (Table 2, formula II) is less than 5.00. Further, the CC50 in series [2] (setting [3]) is greater than 10 µM.

Consider `Cc1cc(=O)n2c3ccccc3n(CC(O)CN3CCC(C)CC3)c2c1C#N` (stereo not drawn) [NYAD-S64], for which the pIC50 in series [1] (Table 2, formula II) is less than 5.00. The CC50 in series [2] (setting [3]) is greater than 10 µM.

Regarding `COc1cccc(NCC(O)Cn2c3ccccc3n3c(=O)cc(C)c(C#N)c23)c1` (stereo not drawn) [NYAD-S65], in series [1] (Table 2, formula II), the pIC50 is less than 5.00. In addition, the CC50 in series [2] (setting [3]) was greater than 10 µM.

For `Cc1cc(C)c2[nH]c(=O)c(CN(Cc3ccco3)C(=O)c3ccccc3)cc2c1` [NYAD-S80], the pIC50 in series [1] (setting [4]) is less than 5.00. For the same compound, the CC50 in series [2] (setting [5]) is greater than 10 µM.

As for `Cc1ccc2cc(CN(Cc3ccco3)C(=O)c3cccc(F)c3)c(=O)[nH]c2c1` [NYAD-S81], the pIC50 in series [1] (setting [4]) was greater than 5.00. The CC50 in series [2] (setting [5]) is greater than 10 µM.

With `Cc1cc(C)c2[nH]c(=O)c(CN(Cc3ccco3)C(=O)c3ccc(Br)cc3)cc2c1` [NYAD-S82], in series [1] (setting [4]), the pIC50 is less than 5.00. Moreover, the CC50 in series [2] (setting [5]) was greater than 10 µM.

Turning to `CCOc1ccc(C(=O)N(Cc2ccco2)Cc2cc3cc(OC)c(OC)cc3[nH]c2=O)cc1` [NYAD-S84], in series [1] (setting [4]), the pIC50 was less than 5.00. Moreover, the CC50 in series [2] (setting [5]) is greater than 10 µM.

Turning to `Cc1ccc(C)c2[nH]c(=O)c(CN(Cc3ccco3)C(=O)c3ccc(Br)cc3)cc12` [NYAD-S85], the pIC50 in series [1] (setting [4]) is less than 5.00. For the same compound, the CC50 in series [2] (setting [5]) was greater than 10 µM.

As for `CCOc1ccc2[nH]c(=O)c(CN(Cc3ccco3)C(=O)c3ccccc3Cl)cc2c1` [NYAD-S89], the pIC50 in series [1] (setting [4]) was less than 5.00. Moreover, the CC50 in series [2] (setting [5]) is greater than 10 µM.

On to `Cc1ccc2[nH]c(=O)c(CN(Cc3ccco3)C(=O)c3ccccc3Br)cc2c1` [NYAD-S90], for which the pIC50 in series [1] (setting [4]) is less than 5.00. The CC50 in series [2] (setting [5]) was greater than 10 µM.

As for `Cc1ccc2[nH]c(=O)c(CN(Cc3ccco3)C(=O)c3ccc(C(C)(C)C)cc3)cc2c1` [NYAD-S91], the pIC50 in series [1] (setting [4]) is less than 5.00. Also, the CC50 in series [2] (setting [5]) was greater than 10 µM.

Take `Cc1ccc(C(=O)N(Cc2ccco2)Cc2cc3ccc(C)cc3[nH]c2=O)cc1` [NYAD-S92]: the pIC50 in series [1] (setting [4]) is less than 5.00. Further, the CC50 in series [2] (setting [5]) was greater than 10 µM.

On to `CCOc1ccc2[nH]c(=O)c(CN(Cc3ccco3)C(=O)c3ccc(Br)cc3)cc2c1` [NYAD-S94], for which the pIC50 in series [1] (setting [4]) is less than 5.00. Also, the CC50 in series [2] (setting [5]) was greater than 10 µM.

For the compound `CCOc1ccc2[nH]c(=O)c(CN(Cc3ccc(F)cc3)C(=O)c3ccco3)cc2c1` [NYAD-S95], the pIC50 in series [1] (setting [4]) is less than 5.00. The CC50 in series [2] (setting [5]) was greater than 10 µM.

As for `Cc1ccc2[nH]c(=O)c(CN(Cc3ccc(F)cc3)C(=O)c3ccco3)cc2c1` [NYAD-S96], the pIC50 in series [1] (setting [4]) is less than 5.00. In addition, the CC50 in series [2] (setting [5]) was greater than 10 µM.

Turning to `CCOc1ccc2[nH]c(=O)c(CN(Cc3ccco3)C(=O)c3cccc(F)c3)cc2c1` [NYAD-S97], the pIC50 in series [1] (setting [4]) was less than 5.00. In addition, the CC50 in series [2] (setting [5]) is less than 10 µM.

In the case of `Cc1ccc2[nH]c(=O)c(CN(Cc3ccc(Cl)cc3)C(=O)c3ccccc3)cc2c1` [NYAD-S98], the pIC50 in series [1] (setting [4]) is less than 5.00. In addition, in series [2] (setting [5]), the CC50 was greater than 10 µM.

Turning to `CCc1ccc2[nH]c(=O)c(CN(Cc3ccco3)C(=O)c3ccccc3)cc2c1` [NYAD-S99], the pIC50 in series [1] (setting [4]) was less than 5.00. In addition, the CC50 in series [2] (setting [5]) is greater than 10 µM.

On to `COc1ccc2[nH]c(=O)c(CN(Cc3ccco3)C(=O)c3ccc(C)cc3)cc2c1` [NYAD-S100], for which the pIC50 in series [1] (setting [4]) was greater than 5.00. Also, the CC50 in series [2] (setting [5]) was greater than 10 µM.

`Cc1cc(C)c2[nH]c(=O)c(CN(Cc3ccco3)C(=O)c3ccco3)cc2c1` [NYAD-S101]: in series [1] (setting [4]), the pIC50 is less than 5.00. In series [2] (setting [5]), the CC50 is greater than 10 µM.

Take `CCc1ccc2[nH]c(=O)c(CN(Cc3cccs3)C(=O)c3ccco3)cc2c1` [NYAD-S102]: the pIC50 in series [1] (setting [4]) was less than 5.00. In addition, the CC50 in series [2] (setting [5]) is greater than 10 µM.

With `Cc1cc(C)c2[nH]c(=O)c(CN(Cc3ccco3)C(=O)c3ccc(F)cc3)cc2c1` [NYAD-S103], the pIC50 in series [1] (setting [4]) was less than 5.00. In addition, the CC50 in series [2] (setting [5]) was greater than 10 µM.

Turning to `Cc1cc(C)c2cc(CN(Cc3ccco3)C(=O)C3CCCCC3)c(=O)[nH]c2c1` [NYAD-S104], the pIC50 in series [1] (setting [4]) was less than 5.00. For the same compound, in series [2] (setting [5]), the CC50 is greater than 10 µM.

Consider `COc1ccc2cc(CN(Cc3ccco3)C(=O)c3ccccc3)c(=O)[nH]c2c1` [NYAD-S105], for which the pIC50 in series [1] (setting [4]) is less than 5.00. Also, in series [2] (setting [5]), the CC50 is greater than 10 µM.

In the case of `CCOc1ccc2[nH]c(=O)c(CN(Cc3ccco3)C(=O)c3ccco3)cc2c1` [NYAD-S106], the pIC50 in series [1] (setting [4]) was less than 5.00. The CC50 in series [2] (setting [5]) was greater than 10 µM.

`Cc1cc(C)c2[nH]c(=O)c(CN(Cc3ccco3)C(=O)c3ccncc3)cc2c1` [NYAD-S107]: the pIC50 in series [1] (setting [4]) was less than 5.00. In series [2] (setting [5]), the CC50 is greater than 10 µM.

In the case of `CCOc1ccc2[nH]c(=O)c(CN(Cc3ccco3)C(=O)c3ccc(C(C)(C)C)cc3)cc2c1` [NYAD-S108], in series [1] (setting [4]), the pIC50 is less than 5.00. In addition, in series [2] (setting [5]), the CC50 is greater than 10 µM.

In the case of `CCOc1ccc2[nH]c(=O)c(CN(Cc3ccco3)C(=O)c3cc(OC)c(OC)c(OC)c3)cc2c1` [NYAD-S109], in series [1] (setting [4]), the pIC50 is less than 5.00. The CC50 in series [2] (setting [5]) is greater than 10 µM.

Regarding `CCc1ccc2[nH]c(=O)c(CN(Cc3ccco3)C(=O)c3ccc(C(C)(C)C)cc3)cc2c1` [NYAD-S110], the pIC50 in series [1] (setting [4]) was less than 5.00. In series [2] (setting [5]), the CC50 was greater than 10 µM.

Consider `Cc1cc(C)c2cc(CN(Cc3ccco3)C(=O)c3ccccc3)c(=O)[nH]c2c1` [NYAD-S111], for which the pIC50 in series [1] (setting [4]) is less than 5.00. The CC50 in series [2] (setting [5]) was greater than 10 µM.

Take `Cc1cccc2cc(CN(Cc3ccco3)C(=O)c3cccc(F)c3)c(=O)[nH]c12` [NYAD-S118]: the pIC50 in series [1] (setting [4]) was greater than 5.00. The CC50 in series [2] (setting [5]) is greater than 10 µM.

In the case of `Cc1ccc(CN(Cc2cc3cc(C)ccc3[nH]c2=O)C(=O)c2ccco2)cc1` [NYAD-S121], in series [1] (setting [4]), the pIC50 was greater than 5.00. Besides, the CC50 in series [2] (setting [5]) was greater than 10 µM.

For `Cc1ccc(C(=O)N(Cc2ccco2)Cc2cc3cccc(C)c3[nH]c2=O)cc1` [NYAD-S122], the pIC50 in series [1] (setting [4]) is greater than 5.00. In addition, in series [2] (setting [5]), the CC50 is less than 10 µM.

Source of the values: patent US8299093B2, “Small molecule inhibitors of retroviral assembly and maturation” (New York Blood Center, Inc., priority 2008, dated 2012).
